According to patent US12545685B2 (Daiichi Sankyo Company, Limited, priority 2011, dated 2026):

Legend:
[1] = tested on: human lung cancer-derived cell line NCI-H460 having wild-type p53; experiment: Cell growth inhibition assay (MTT); assay type: cell-based; settings: 72 h, NCI-H460 cells, 3 days culture, values given as ranges, read-out: 50% growth inhibition concentration (GI50 value)
How it was run: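 NCI-H460 cells (wild-type p53) seeded at 500 cells/well in RPMI1640 with 10% FBS, then treated the next day and grown 3 days at 37 °C. MTT read-out at OD 540 nm (660 nm reference), taken at dosing and at day 3. GI50 derived from T/C (%) dose-response curves.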

[2] = target: T1, Mdm2/p53 binding (GST-Mdm2 / His-p53) (Homo sapiens, UniProt Q00987, L33E); experiment: Mdm2/p53 binding assay (HTRF, His-p53 and GST-Mdm2); settings: His-p53 (aa 1-132) and GST-Mdm2 (aa 25-108, L33E) 6.25 nM each; 25°C, 1 hour; values given as ranges
T1 construct: Mdm2 partial protein having Mdm2 amino acids at positions 25 to 108
T1 sequence (Q00987 25-108 L33E): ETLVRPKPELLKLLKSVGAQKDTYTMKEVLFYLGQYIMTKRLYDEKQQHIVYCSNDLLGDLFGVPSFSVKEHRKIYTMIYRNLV
How it was run: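 His-p53 (aa 1–132) and GST-Mdm2 (aa 25–108, L33E) were prepared at 6.25 nM each in the protein dilution (20 mM HEPES pH 7.4, 150 mM NaCl, 0.1% BSA). Compound in 10% DMSO buffer and XL665 anti-His/Eu anti-GST antibodies (KF buffer) were added, with 1 h at 25 °C. The 665/620 nm TR-FRET ratio gave T/C and a sigmoid-fitted IC50.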

CC(C)NC(=O)[C@@H]1CC[C@@H](NC(=O)[C@@H]2NC3(CCC(C)(C)CC3)[C@@]3(C(=O)Nc4cc(Cl)ccc43)[C@H]2c2ccnc(Cl)c2F)CO1 [Example 96, (3′R, 4′S,5′R)-6″-chloro-4′-(2-chloro-3-fluoropyridin-4-yl)-N-[(3R,6S)-6-(isopropylcarbamoyl)tetrahydro-2H-pyran-3-yl]-4,4-dimethyl-2′-oxo-1″,2″-dihydrodispiro[cyclohexane-1,2′-pyrrolidine-3′,3″-indole]-5′-carboxamide]
GI50 [1]: 100 to 500 nM | IC50 [2]: 50 to 100 nM

CC1(C)CCC2(CC1)N[C@@H](C(=O)N[C@@H]1CC[C@@H](C(=O)NC3CC3)OC1)[C@H](c1ccnc(Cl)c1F)[C@]21C(=O)Nc2cc(Cl)ccc21 [Example 97, (3′R, 4′S,5′R)-6″-chloro-4′-(2-chloro-3-fluoropyridin-4-yl)-N-[(3R,6S)-6-(cyclopropylcarbamoyl)tetrahydro-2H-pyran-3-yl]-4,4-dimethyl-2″-oxo-1″,2″-dihydrodispiro[cyclohexane-1,2′-pyrrolidine-3′,3″-indole]-5′-carboxamide]
GI50 [1]: 100 to 500 nM | IC50 [2]: 1 to 50 nM

CNC(=O)[C@@H]1CC[C@@H](NC(=O)[C@@H]2NC3(CCC(C)(C)CC3)[C@@]3(C(=O)Nc4cc(Cl)ccc43)[C@H]2c2ccnc(Cl)c2F)CO1 [Example 99, (3′R, 4′S,5′R)-6″-chloro-4′-(2-chloro-3-fluoropyridin-4-yl)-N-[(3R,6S)-6-(methylcarbamoyl)tetrahydro-2H-pyran-3-yl]-4,4-dimethyl-2″-oxo-1″,2″-dihydrodispiro[cyclohexane-1,2′-pyrrolidine-3′,3″-indole]-5′-carboxamide]
GI50 [1]: < 100 nM | IC50 [2]: 1 to 50 nM

CN(C)C(=O)[C@@H]1CC[C@@H](NC(=O)[C@@H]2NC3(CCC(C)(C)CC3)[C@@]3(C(=O)Nc4cc(Cl)ccc43)[C@H]2c2ccnc(Cl)c2F)CO1 [Example 100, (3′R, 4′S,5′R)-6″-chloro-4′-(2-chloro-3-fluoropyridin-4-yl)-N-[(3R,6S)-6-(dimethylcarbamoyl)tetrahydro-2H-pyran-3-yl]-4,4-dimethyl-2″-oxo-1″,2″-dihydrodispiro[cyclohexane-1,2′-pyrrolidine-3′,3′″-indole]-5′-carboxamide]
GI50 [1]: < 100 nM | IC50 [2]: 1 to 50 nM

CC1(C)CCC2(CC1)N[C@@H](C(=O)N[C@@H]1CC[C@@H](C(=O)N3CC(O)C3)OC1)[C@H](c1ccnc(Cl)c1F)[C@]21C(=O)Nc2cc(Cl)ccc21 [Example 107, (3′R, 4′S,5′R)-6″-chloro-4′-(2-chloro-3-fluoropyridin-4-yl)-N-{(3R,6S)-6-[(3-hydroxyazetidin-1-yl)carbonyl]tetrahydro-2H-pyran-3-yl}-4,4-dimethyl-2″-oxo-1″,2″-dihydrodispiro[cyclohexane-1,2′-pyrrolidine-3′,3″-indole]-5′-carboxamide]
GI50 [1]: 100 to 500 nM | IC50 [2]: 1 to 50 nM

CC1(C)CCC2(CC1)N[C@@H](C(=O)N[C@@H]1CC[C@@H](C(=O)NC3CCOCC3)OC1)[C@H](c1ccnc(Cl)c1F)[C@]21C(=O)Nc2cc(Cl)ccc21 [Example 109, (3′R, 4′S,5′R)-6″-chloro-4′-(2-chloro-3-fluoropyridin-4-yl)-4,4-dimethyl-2″-Oxo-N-[(3R,6S)-6-(tetrahydro-2H-pyran-4-ylcarbamoyl)tetrahydro-2H-pyran-3-yl]-1″,2″-dihydrodispiro[cyclohexane-1,2′-pyrrolidine-3′,3″-indole]-5′-carboxamide]
GI50 [1]: 100 to 500 nM | IC50 [2]: 1 to 50 nM

CC1(C)CCC2(CC1)N[C@@H](C(=O)N[C@@H]1CC[C@@H](C(=O)N3CCOCC3)OC1)[C@H](c1ccnc(Cl)c1F)[C@]21C(=O)Nc2cc(Cl)ccc21 [Example 110, (3′R, 4′S,5′R)-6″-chloro-4′-(2-chloro-3-fluoropyridin-4-yl)-4,4-dimethyl-N-[(3R,6S)-6-(morpholin-4-ylcarbonyl)tetrahydro-2H-pyran-3-yl]-2″-oxo-1″,2″-dihydrodispiro[cyclohexane-1,2′-pyrrolidine-3′,3″-indole]-5′-carboxamide]
GI50 [1]: < 100 nM | IC50 [2]: 1 to 50 nM

CC1(C)CCC2(CC1)N[C@@H](C(=O)N[C@@H]1CC[C@@H](CC(N)=O)OC1)[C@H](c1ccnc(Cl)c1F)[C@]21C(=O)Nc2cc(Cl)ccc21 [Example 111, (3′R, 4′S,5′R)—N-[(3R,6S)-6-(2-amino-2-oxoethyl)tetrahydro-2H-pyran-3-yl]-6″-chloro-4′-(2-chloro-3-fluoropyridin-4-yl)-4,4-dimethyl-2″-oxo-1″,20-dihydrodispiro[cyclohexane-1,2′-pyrrolidine-3′,3″-indole]-5′-carboxamide]
GI50 [1]: 100 to 500 nM | IC50 [2]: 1 to 50 nM

CC1(C)CCC2(CC1)N[C@@H](C(=O)N[C@H]1C[C@H](c3nnco3)C1)[C@H](c1ccnc(Cl)c1F)[C@]21C(=O)Nc2cc(Cl)ccc21 [Example 112, (3′R, 4′S, S′R)-6″-chloro-4′-(2-chloro-3-fluoropyridin-4-yl)-4,4-dimethyl-N-[trans-3-(1,3,4-oxadiazol-2-yl)cyclobutyl]-2″-oxo-1″,2″-dihydrodispiro[cyclohexane-1,2′-pyrrolidine-3′,3″-indole]-5-carboxamide]
GI50 [1]: 100 to 500 nM | IC50 [2]: 50 to 100 nM

CN(C)C(=O)[C@H]1CC[C@H](NC(=O)[C@@H]2NC3(CCC(C)(C)CC3)[C@@]3(C(=O)Nc4cc(Cl)ccc43)[C@H]2c2ccnc(Cl)c2F)CC1 [Example 113, (3′R, 4′S,5′R)-6″-chloro-4′-(2-chloro-3-fluoropyridin-4-yl)-N-[trans-4-(dimethylcarbamoyl)cyclohexyl]-4,4-dimethyl-2″-oxo-1″,2″-dihydrodispiro[cyclohexane-1,2′-pyrrolidine-3′,3″-indole]-5′-carboxamide]
GI50 [1]: < 100 nM | IC50 [2]: 1 to 50 nM

CC1(C)CCC2(CC1)N[C@@H](C(=O)N[C@H]1C[C@H](C(N)=O)C1)[C@H](c1ccnc(Cl)c1F)[C@]21C(=O)Nc2cc(Cl)ccc21 [Example 114, (3′R, 4′S,5′R)—N-(trans-3-carbamoylcyclobutyl)-6″-chloro-4′-(2-chloro-3-fluoropyridin-4-yl)-4,4-dimethyl-2″-oxo-1″,2″-dihydrodispiro[cyclohexane-1,2′-pyrrolidine-3′,3″-indole]-5′-carboxamide]
GI50 [1]: 500 to 1000 nM | IC50 [2]: 1 to 50 nM

CN(C)C(=O)[C@H]1C[C@H](NC(=O)[C@@H]2NC3(CCC(C)(C)CC3)[C@@]3(C(=O)Nc4cc(Cl)ccc43)[C@H]2c2ccnc(Cl)c2F)C1 [Example 115, (3′R, 4′S,5′R)-6″-chloro-4′-(2-chloro-3-fluoropyridin-4-yl)-N-[trans-3-(dimethylcarbamoyl)cyclobutyl]-4,4-dimethyl-2″-oxo-1″,2″-dihydrodispiro[cyclohexane-1,2′-pyrrolidine-3′,3″-indole]-5′-carboxamide]
GI50 [1]: 100 to 500 nM | IC50 [2]: 1 to 50 nM

CCN(CC)C(=O)[C@@H]1CC[C@@H](NC(=O)[C@@H]2NC3(CCC(C)(C)CC3)[C@@]3(C(=O)Nc4cc(Cl)ccc43)[C@H]2c2ccnc(Cl)c2F)CO1 [Example 116, (3′R, 4′S,5′R)-6″-chloro-4′-(2-chloro-3-fluoropyridin-4-yl)-N-[(3R,6S)-6-(diethylcarbamoyl)tetrahydro-2H-pyran-3-yl]-4,4-dimethyl-2″-oxo-1″,2″-dihydrodispiro[cyclohexane-1,2′-pyrrolidine-3′,3″-indole]-5′-carboxamide]
GI50 [1]: < 100 nM | IC50 [2]: 1 to 50 nM
